Data reported in patent US20230313313A1, “BIOMARKERS FOR CANCER THERAPY USING MDM2 ANTAGONISTS” (OTSUKA PHARMACEUTICAL CO., LTD., priority 2020, published 2023).
Entries after “also recorded” stand apart in the source; their conditions may differ.

Experiments:
MV4-11 cells = test: Alamar Blue proliferation assay, MV4-11 overexpressing SKP2 vs control; type: cell-based, human; settings: MV4-11 SKP2 OE compared to control
Protocol: Precision LentiORF Transduction:
Precision LentiORF Lentiviral Transduction Particles (Cat. OHS5900-224629438, Dharmacon, UK) were used to overexpress SKP2 in the MV4-11 AML cell line. Stable gene overexpression was established by cellular resistance to blasticidin (5 μg/ml) and was confirmed at the protein level by western blot. The Precision LentiORF control empty vector (Dharmacon, UK) served as a negative control.
The number of viable cells was determined by Alamar Blue assay (Bio-Rad, Irvine, CA, USA). All cell lines were grown and assayed in RPMI-1640+10% FBS medium.
Compounds were diluted first in DMSO and then into serum-free medium, before addition to triplicate wells of the cultured cells to give a 0.1% DMSO final concentration. […] Twenty μl of Alamar Blue™ (AbD Serotec/Bio-Rad) was added to each well and plates were then incubated for 4-6 h at 37° C. in an atmosphere of 5% CO2 and air. Plates were then read at 535 nm (excitation) and 590 nm (emission) on a SpectraMax Gemini reader (Molecular Devices, San Jose, CA, USA).

OCI-AML3 cells = test: Induction of apoptosis by cleaved caspase-3 cytometry, combination with IAP antagonist; type: cell-based, human; settings: 0.1 μM Compound 1 with 1 μM ASTX660 and 1 ng/ml TNF-alpha, 72 h
Protocol: Cleaved caspase-3 staining was recorded in the FL1 (green) channel, with unstained and DMSO control wells being used to set the gated stained and unstained cell populations—allowing the percentage of cells that are apoptotic to be calculated.

SN40R2 = test: Protocol A: SN40R2 growth inhibition, sulphorhodamine B (SRB) method; settings: 72 h, read-out: SN40R2 IC50 (Protocol A)
Protocol: Following incubation with the SRB dye at room temperature for 30 min, the plates were washed with 1% acetic acid and left to dry. […] The GI50 was calculated by non-linear regression analysis of the data using Prism v4.0 statistical software.

[1] = tested on: multiple myeloma (MM) cells; settings: in vitro and ex vivo; cited from earlier work
human leukaemia models = settings: by inducing MDM2 degradation; cited from earlier work
cancer cell lines = settings: cited from earlier work
tumour growth = settings: inducing mitochondrial effects of p53; cited from earlier work

CC1(C)CCC(CN2CCN(c3ccc(C(=O)NS(=O)(=O)c4ccc(NCC5CCOCC5)c([N+](=O)[O-])c4)c(Oc4cnc5[nH]ccc5c4)c3)CC2)=C(c2ccc(Cl)cc2)C1 [ABT-199, reference compound]
effect of SKP2 overexpression on cytotoxicity / sensitivity (MV4-11 cells): does not modulate sensitivity; also recorded: no difference

C[C@@H]1CN(CC(=O)N2CC(C)(C)c3nc(CO)c(Cc4ccc(F)cc4)cc32)[C@@H](CN2CCOC[C@H]2C)CN1 [ASTX660, 1-{6-[(4-fluorophenyl)methyl]-5-(hydroxymethyl)-3,3-dimethyl-1H,2H,3H-pyrrolo[3,2-b]pyridin-1-yl}-2-[(2R,5R)-5-methyl-2-{[(3R)-3-methylmorpholin-4-yl]methyl}piperazin-1-yl]ethan-1-one, reference compound]
level of apoptosis (cleaved caspase-3), combination (OCI-AML3 cells): sensitises

CC(C)(O)c1ccc2c(c1)C(=O)N(Cc1ccc(Cl)cc1)[C@@]2(OCC1(CO)CC1)c1ccc(Cl)cc1 [Example 1, (3R)-3-(4-chlorophenyl)-2-[(4-chlorophenyl)methyl]-3-{[1-(hydroxymethyl)cyclopropyl]methoxy}-6-(2-hydroxypropan-2-yl)-2,3-dihydro-1H-isoindol-1-one]
IC50 (SN40R2): 7.5 µM

CC(C)(O)c1cc(F)c2c(c1)C(=O)N(Cc1ccc(Cl)cc1)[C@@]2(OCC1(CO)CC1)c1ccc(Cl)cc1 [Example 2, (3R)-3-(4-chlorophenyl)-2-[(4-chlorophenyl)methyl]-4-fluoro-3-{[1-(hydroxymethyl)cyclopropyl]methoxy}-6-(2-hydroxypropan-2-yl)-2,3-dihydro-1H-isoindol-1-one]
IC50 (SN40R2): 17 µM

CC(O)(CN1CCNCC1)c1cc(F)c2c(c1)C(=O)N(Cc1ccc(Cl)cc1S(C)(=O)=O)[C@@]2(OCC1(CO)CC1)c1ccc(Cl)cc1 (stereo partly drawn) [Example 43, (3R)-2-[(4-chloro-2-methanesulfonylphenyl)methyl]-3-(4-chlorophenyl)-4-fluoro-6-[2-hydroxy-1-(piperazin-1-yl)propan-2-yl]-3-{[1-(hydroxymethyl)cyclopropyl]methoxy}-2,3-dihydro-1H-isoindol-1-one]
IC50 (SN40R2): 2 µM

c1ccc2c(CCNc3ccc(Nc4ccncc4)cc3)c[nH]c2c1 [JNJ 26854165]
activity against multiple myeloma (MM) cells [1]: potent activity

O=C(O)C(F)(F)F.O=C1CCC(N2Cc3c(C#CCCCNC(=O)c4ccc(NC(=O)[C@@H]5NC6(CCCCC6)[C@@]6(C(=O)Nc7cc(Cl)ccc76)[C@H]5c5ccnc(Cl)c5F)cc4)cccc3C2=O)C(=O)N1 (stereo partly drawn) [LE-004]
growth of human leukaemia models in mice (human leukaemia models): efficiently inhibited growth

CC(C)(C)C[C@@H]1N[C@@H](C(=O)N[C@H]2CC[C@H](O)CC2)[C@H](c2cccc(Cl)c2F)[C@]12C(=O)Nc1cc(Cl)ccc12 [MI-773]
cell growth in cancer cell lines (cancer cell lines): potently inhibits cell growth

COC1CC(C(N)=O)CCC1NC(=O)[C@@H]1N[C@@H](CC(C)(C)C)[C@@]2(C(=O)Nc3cc(Cl)ccc32)[C@H]1c1cccc(Cl)c1F (stereo partly drawn) [RO-8994]
tumour growth (tumour growth): inhibit tumour growth
